# Measured values as given in the supplement of paper PMC10307832.
# Legend:
# Experiment in all cases: relative viability (nuclei count vs DMSO), 5 days (fraction); higher = more cells survive
# Dabrafenib + OSI-027 = compound: CC(C)(C)c1nc(-c2cccc(NS(=O)(=O)c3c(F)cccc3F)c2F)c(-c2ccnc(N)n2)s1 [Dabrafenib] + COc1cccc2cc(-c3nc([C@H]4CC[C@H](C(=O)O)CC4)n4ncnc(N)c34)[nH]c12 [OSI-027] (partner 0.5 µM)
# Outline: (§1)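 Lung cancer cell lines in 1536-well plates got either a single drug or a fixed anchor-drug dose together with five library-drug doses (not always all listed) in √10 steps, by pin tool, on the day after seeding. Nuclei were counted after 5 days, and relative viability is the treated-to-vehicle ratio of nuclei counts. Values are medians of duplicate plates.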
# Dabrafenib + Linsitinib = compound: CC(C)(C)c1nc(-c2cccc(NS(=O)(=O)c3c(F)cccc3F)c2F)c(-c2ccnc(N)n2)s1 [Dabrafenib] + C[C@]1(O)C[C@@H](c2nc(-c3ccc4ccc(-c5ccccc5)nc4c3)c3c(N)nccn32)C1 [Linsitinib] (partner 1 µM)
# Outline: as §1
# Dabrafenib + Phenformin = compound: CC(C)(C)c1nc(-c2cccc(NS(=O)(=O)c3c(F)cccc3F)c2F)c(-c2ccnc(N)n2)s1 [Dabrafenib] + N=C(N)NC(=N)NCCc1ccccc1 [Phenformin] (partner 250 µM)
# Outline: as §1
# VX-702 + Luminespib = compound: NC(=O)c1ccc(N(C(N)=O)c2c(F)cccc2F)nc1-c1ccc(F)cc1F [VX-702] + CCNC(=O)c1noc(-c2cc(C(C)C)c(O)cc2O)c1-c1ccc(CN2CCOCC2)cc1 [Luminespib] (partner 0.01 µM)
# Outline: as §1
Cell Line,relative viability (Dabrafenib + OSI-027; first compound 0.003 µM),relative viability (Dabrafenib + OSI-027; first compound 0.009487 µM),relative viability (Dabrafenib + OSI-027; first compound 0.03 µM),relative viability (Dabrafenib + OSI-027; first compound 0.09487 µM),relative viability (Dabrafenib + OSI-027; first compound 0.3 µM),relative viability (Dabrafenib + Linsitinib; first compound 0.003 µM),relative viability (Dabrafenib + Linsitinib; first compound 0.009487 µM),relative viability (Dabrafenib + Linsitinib; first compound 0.03 µM),relative viability (Dabrafenib + Linsitinib; first compound 0.09487 µM),relative viability (Dabrafenib + Linsitinib; first compound 0.3 µM),relative viability (Dabrafenib + Phenformin; first compound 0.003 µM),relative viability (Dabrafenib + Phenformin; first compound 0.009487 µM),relative viability (Dabrafenib + Phenformin; first compound 0.03 µM),relative viability (Dabrafenib + Phenformin; first compound 0.09487 µM),relative viability (Dabrafenib + Phenformin; first compound 0.3 µM),relative viability (VX-702 + Luminespib; first compound 0.02 µM),relative viability (VX-702 + Luminespib; first compound 0.2 µM),relative viability (VX-702 + Luminespib; first compound 0.6325 µM),relative viability (VX-702 + Luminespib; first compound 2 µM)
LXF-289,0.337,0.819,0.751,0.783,0.856,0.992,0.976,1.04,0.954,1.08,0.364,0.511,0.487,0.493,0.542,0.689,0.732,0.659,0.789
NCI-H23,–,0.602,0.471,0.435,0.486,–,0.67,0.553,0.645,0.547,–,0.816,0.762,0.51,0.687,0.196,0.189,0.274,0.215
NCI-H322M,–,0.545,0.503,0.515,0.448,–,1.02,–,0.874,0.895,–,0.86,0.579,0.744,0.502,0.856,0.917,0.759,0.88
NCI-H358,0.486,0.923,0.74,0.576,0.655,–,1.03,0.705,0.813,0.776,0.193,0.457,0.467,0.344,0.419,0.245,0.416,0.583,0.4
NCI-H441,–,0.465,0.565,0.438,0.352,–,0.48,0.54,0.32,0.383,–,1.04,1,0.548,0.563,0.368,0.326,0.271,0.411
